Results as given in patent publication US20040248915A1 (priority 2003, published 2004).
Several values for one entry are separate records, joined by “and”; a condition that tells them apart may be missing. Equal entries are not always repeated. Where two headings read alike, the source gives them in different places.

Tests used:
[1] = tested on: nucleoside transporters; details: membrane permeation not mediated by nucleoside transporters; cited from earlier work
[2] = tested on: HT-29 human colorectal carcinoma cell line; assay: Clonogenic assay; type: cell-based; details: HT-29 clonal growth; for IC50: Homo sapiens
Procedure: Two different methods were used, the MTT colometric assay and the clonogenic assay. b)Clonogenic assay: HT-29 cells were plated on 6-well flat-bottomed plates (200-400 cells) and allowed to attach overnight. […] After the incubation period with the drug, cells were washed and fresh drug-free medium added. On day 10, cells were exposed to Crystal violet stain.

[3] = in vivo; details: nude, mouse, 10.6 mg/kg
[4] = biological target: cytidine deaminase (CDA) (Homo sapiens, UniProt P32320); details: cited from earlier work
[5] = tested on: HT-29 human colorectal cancer cells grown as xenografts in nude mice; assay: Antitumor efficacy studies in human xenografts; type: in vivo; details: for day from which tumor regressions were observed: 6-day infusion; for inhibition of tumor growth: 53-63 mg/kg
Procedure: Antitumor efficacy studies: In vivo efficacy studies were conducted using the HT-29 human colorectal cancer cells grown as xenografts in nude mice. Female athymic CD-1(nu/nu) mice were injected s.c. with 2×10^6 human colon HT-29 tumor cells. Tumor bearing animals were randomised (10 to 15 per group) and treatment started when tumor volumes reached 80 to 120 mm^3 (days 6 to 9; depending on the study). Tumor measurements, taken by callipers twice weekly, were converted to tumor volumes (in mm^3) using the standard formula, [width (mm)]^2×length (mm)×0.52. […] The pumps were implanted s.c. under sterile conditions at the site opposite to the tumor. These pumps (internal volume, 200 μl) continuously deliver test agent at a rate of 1 μl/h for 200 h (8.3 days total). Pumps were removed after 1, 3, 5 or 6 days, thus insuring continuous delivery of test agent over the course of the experiment. […] Compound efficacy was assessed at the end of the study by percentage of T/C defined as the mean treated tumor volume/mean control tumor volume×100%, with a T/C of about 40% or less being indicative of antitumor activity (J. Plowman et al., Human tumor xenograft models in NCI drug development in Teicher BA (ed) “Anticancer Drug Development Guide: Preclinical screening, clinical trials, and approval”. Humana Press Inc., Totowa, N.J. 1997;101-125). To monitor the drug-associated toxicity, mice were weighed at least twice a week and daily inspected for observable clinical signs. Statistical analysis was performed by ANOVA (ANalysis Of VAriance) or by Student's t test. Differences were considered to be significant at P<0.05.
Once we had established the optimum dose range (activity and well tolerated toxicity), a second study was performed to establish the time necessary to obtain optimum antitumor efficacy. This study was performed using 5, 10 and 20 mg/ml infused over 1, 3 and 5 days, when the tumors had reached 85 mm^3 (day 6).
Bolus administration was given by intravenous injection in the tail vein (10 ml/kg).

[6] = bolus administration
[7] = mice, bolus i.v. 20 mg/kg, cited from earlier work
[8] = tested on: relapsed acute myeloid leukemia (AML); assay: Phase I continuous infusion in relapsed AML: toxicity and antileukemic activity
[9] = in vivo; details: female, mouse
Procedure: Antitumor efficacy studies: In vivo efficacy studies were conducted using the HT-29 human colorectal cancer cells grown as xenografts in nude mice. Female athymic CD-1(nu/nu) mice were injected s.c. with 2×10^6 human colon HT-29 tumor cells. Tumor bearing animals were randomised (10 to 15 per group) and treatment started when tumor volumes reached 80 to 120 mm^3 (days 6 to 9; depending on the study). Tumor measurements, taken by callipers twice weekly, were converted to tumor volumes (in mm^3) using the standard formula, [width (mm)]^2×length (mm)×0.52. […] The pumps were implanted s.c. under sterile conditions at the site opposite to the tumor. These pumps (internal volume, 200 μl) continuously deliver test agent at a rate of 1 μl/h for 200 h (8.3 days total). Pumps were removed after 1, 3, 5 or 6 days, thus insuring continuous delivery of test agent over the course of the experiment. […] To monitor the drug-associated toxicity, mice were weighed at least twice a week and daily inspected for observable clinical signs. Statistical analysis was performed by ANOVA (ANalysis Of VAriance) or by Student's t test. Differences were considered to be significant at P<0.05.

[10] = set-up: species or system mice; details: athymic CD-1 (nu/nu) nude, mouse, in vivo
Procedure: Blood was centrifuged at 10,000 g for 10 minutes and plasma was collected and frozen at −20° C. until further analysis. An aliquot of mouse plasma (100 μl) was precipitated with 300 μl of acetonitrile containing 3TC® (Shire BioChem) as internal standard. After centrifugation at 3,000 ×g for 5 minutes, 300 μl of supernatant was collected and evaporated to dryness under a gentle stream of nitrogen. The residue was then reconstituted with 100 μl of deionized water. […] The chromatography was achieved on a Luna C18 column (150×2 mm, 5 μm, Phenomenix, Torrance, Calif.) with a flow rate of 0.25 ml/min. The aqueous mobile phase, consisting of 10 mM ammonium acetate buffer, pH6.8, was held for 5 minutes and followed by a linear gradient of 0-50% acetonitrile over 8 minutes. Sample analysis was performed on a LC/MS/MS (TSQ7000, Thermo Finnigan, San Jose, Calif.) equipped with electrospray source.

[11] = tested on: advanced solid tumors; assay: Phase I continuous infusion in advanced solid tumors: toxicity; type: in vivo, human
Procedure: This is a dose and infusion length finding study to achieve a minimum steady-state plasma concentration of 21 ng/mL (0.1 μM) for 72-120 hr. The starting dose of 3 mg/m^2/d was determined from PK simulation modeling using data obtained from Phase I studies (30-minute infusions). The starting infusion duration was 48 hr with escalation to 72 hr, 96 hr and 120 hr in cohorts of 3-6 patients.
In the results evaluated to date, 12 adults with refractory solid tumors have been treated. The first cohort (4 patients) received drug for 48 h (total dose 6 mg/m^2) with no DLT. The second cohort of patients was treated for 72 hr (total 9 mg/m^2). […] The 2 patients with DLT had the highest plasma concentrations. Enrollment is ongoing at 2.25 mg/m^2/d for 96 h (total 9 mg/m^2).

[12] = rats, 10 mg/kg injection; cited from earlier work
[13] = tested on: relapsed acute myeloid leukemia (AML); details: in vivo
[14] = human, in vivo
[15] = cited from earlier work; for recommended doses: DLT neutropenia and skin rash
[16] = tested on: HT-29 human colorectal carcinoma cell line; assay: MTT colometric assay; type: cell-based; details: for GI50: Homo sapiens
Procedure: Two different methods were used, the MTT colometric assay and the clonogenic assay. a)MTT colometric assay: HT-29 cells were plated at 2.5×10^3 cells/well in a 96-well tissue culture plate and allowed to attach overnight. […] After the incubation period with the drug, cells were washed and fresh drug-free medium added. On day 3, cellular proliferation was evaluated by the tetrazolium dye assay.

cytidine deaminase (CDA), sequence (P32320 whole entry, species assumed, the tested form may be a part): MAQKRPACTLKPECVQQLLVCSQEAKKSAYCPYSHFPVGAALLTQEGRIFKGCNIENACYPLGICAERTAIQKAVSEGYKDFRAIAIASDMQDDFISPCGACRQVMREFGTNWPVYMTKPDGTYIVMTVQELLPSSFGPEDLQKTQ

## Nc1ccn([C@@H]2CO[C@H](CO)O2)c(=O)n1 [troxacitabine, (−)-β-L-Dioxolane-Cytidine]
[1]
  major route of cellular uptake: passive diffusion
[2]
  change in potency when incubation time increased from 72 hr to 144 hr: No further increase in potency
  difference between IC50 values following 24- and 72 hr exposures: 5 fold
[2]; 24 hr exposure
  IC50: 2.2 µM
[2]; 72 hr exposure
  IC50: 0.4 µM
[3]
  AUC at 5 days: 18800 ng·h/mL
[4]
  deamination by cytidine deaminase (CDA): resistant to deamination
[5]; 0.5 mg/ml pump, continuous infusion 6 days, day 31
  T/C: 79%
[5]; 5 mg/ml pump, continuous infusion 6 days, day 31
  T/C: 42%
[5]; 10 mg/ml infusion over 6 days vs 10.6 mg/kg daily for 5 consecutive days
  antitumor activity of infusion compared with daily bolus: same antitumor activity
[5]; 10 mg/ml pump, continuous infusion 6 days, day 31
  T/C: 22%
[5]; 10 mg/ml
  day from which tumor regressions were observed: 29 days
[5]; 20 mg/ml infused over 3 days
  tumor course: tumor stasis during the first week after treatment followed by tumor regrowth
[5]; 20 mg/ml infused over 3 days, end of study
  T/C: 44%
[5]; 20 mg/ml, 5-day infusion
  tumor regressions: Tumor regressions were observed from day 18 till day 28 followed by regrowth
[5]; 20 mg/ml, 5-day infusion, end of study
  T/C: 27%
[5]; 50 mg/ml pump, continuous infusion 6 days, day 31
  T/C: 11%
[5]; 50 mg/ml
  day from which tumor regressions were observed: 21 days
[5]; 3-day administration regimens (q7d×3 or 3-day infusions)
  inhibition of tumor growth: intermediate
[5]; 5-6 day regimens (q1d×5 or 6-day infusions)
  inhibition of tumor growth: optimal
[5]; one day infusion (24 h), 5, 10 and 20 mg/ml
  effect on tumor growth: no effect
[5]; single bolus i.v. injection 63 mg/kg
  antitumor activity: low activity
[6]
  tolerated drug systemic concentrations, mice compared with humans: over 20 fold
  tolerated exposures, mice compared with humans: over 6 fold
[7]; at 2 minutes, read-out: plasma Cmax
  Cmax: ≥ 100 µM
[7]
  elimination t1/2: 0.267 h
  plasma drug concentration by 60 minutes: 4.5 µM
50 mg/ml, 3-5 days following initiation of treatment
  body weight loss: ≤ 20%
Pump concentration, continuous infusion 6 days, nude mice
  maximum tolerated dose (MTD): 50 mg/mL
[8]; AML patients who received 40.4-60.6 mg/m^2
  bone marrow aplasia, patients: 10 of 17
[8]; AML patients, continuous infusion
  higher cumulative doses achieved than by bolus administration: 25%
[8]; AML patients, continuous infusion administered over five days
  recommended dose: 50.5 mg/m^2
[8]; first 7 AML patients, cumulative doses ≦30.3 mg/m^2
  bone marrow hypoplasia/aplasia: not seen
[8]; first 24 AML patients treated
  patients who achieved remissions: 4 patients
[9]
  MTD at 6 days: 45 to 50 mg/kg/day
[10]
  peak plasma concentrations with prolonged infusion: 0.7 to 1.6 µM
[11]; solid tumor patients, continuous infusion
  main non-hematological toxicities: mild to moderate skin rash
[11]; solid tumors, 2 mg/m^2/d over 3 days (total 6 mg/m^2), three patients
  DLT: no DLTs observed
[11]; solid tumors, 3 mg/m^2/d for 48 h (total 6 mg/m^2), 4 patients
  DLT: no DLT
[11]; solid tumors, 3 mg/m^2/d for 72 hr (total 9 mg/m^2), Grade 4 neutropenia, fever, Grade 3 thrombocytopenia
  DLT's, patients: 2 of the 5
[12]
  Cmax: ≥ 100 µM
[13]; human
  hand-foot syndrome: Grade 1 and 2 hand-foot syndrome was also observed at all dose levels
[13]; human, 6 days
  dose-limiting Grade 3 stomatitis, patients: 2 of 4
[13]
  dose-limiting stomatitis, patients: Two of the four
  skin rash: generalized mild to moderate skin rash was observed at all dose levels
[14]
  drug exposure above or equal to 0.4 μM: 120 h
  interpatient variation in observed concentrations at each protocol time-point: 2-to 3 fold
[15]; bolus administration
  drug exposure above or equal to 0.4 μM: 19.3 h
[15]; humans, 1.5 and 1.2 mg/m^2/d, first day
  Cmax plasmatic: 110 to 140 ng/mL
[15]; humans, 5 half-lives (5×12 hrs)
  time to steady state plasma concentration: 60 h
[15]; humans, 30-minute infusion every 21 days
  recommended doses: 12.5 mg/m^2 and 10 mg/m^2
[15]; humans, 30-minute infusion on 5 consecutive days every 4 weeks
  recommended doses: 1.5 mg/m^2/d and 1.2 mg/m^2/d
[15]; humans, administered clinical bolus doses
  plasma concentrations 5 minutes after drug administration: 0.6 to 4 µM
[15]; humans, i.v. 10 mg/m^2
  drug concentration less than 30 minutes after the end of infusion: less than 1 μM
  elimination t1/2: 13 h
  time drug concentration remained above 0.1 μM: approximately 12 hours
[15]; i.v. administration
  maximum tolerated dose in humans: 10 mg/m^2
[15]; read-out: Cmax plasmatic, humans, 1.5 and 1.2 mg/m^2/d, first day
  Cmax: 0.52 to 0.66 µM
[15]; read-out: plasma Cmax, humans, i.v. 10 mg/m^2
  Cmax: 4.1 µM
[16]; HT-29, MTT
  potency of 72-hour versus 1 hr exposure: 265 fold
[16]; HT-29, 24 h, HT-29, 24 hr drug exposure
  GI50: 5 µM
[16]; HT-29, 72 h, HT-29, 72 hr drug exposure
  GI50: 1 µM
[16]; HT-29, HT-29, 1 hr drug exposure, read on day 3
  GI50: 265 µM
[16]; HT-29, HT-29, 4 hr drug exposure, read on day 3
  GI50: 46 µM
